Experimental data published in patent US10583087B2, “Pharmaceutical composition for oral administration” (ASTELLAS PHARMA INC., priority 2015, dated 2020).
Converted amounts (≈) assume the structure as drawn. Like-named read-outs stand apart in the source and are kept apart here.

Columns and labels:
[1] = Behaviour of compound A upon contact with a solvent (gelation); type: physicochemical; conditions: solvent such as water
[2] = Solubility of compound A in JP dissolution test fluids; type: physicochemical

gelation upon contact with a solvent [1]: gelled upon contact with a solvent
pH dependence of solubility [2]: pH-dependent
solubility ([2]; aqueous buffer, second fluid for a dissolution test of the Japanese Pharmacopoeia, JP2 (pH 6.8), read-out: solubility in a neutral pH range): ~17.8 µg/mL (≈ 28.8 µM)
solubility ([2]; simulated gastric fluid, first fluid for a dissolution test of the Japanese Pharmacopoeia, JP1 (pH 1.2), read-out: solubility in an acidic pH range): ~44.1 µg/mL (≈ 71.3 µM)
Compound: CC[C@@H]1CCCN1Cc1sc(NC(=O)c2cnc(N3CCC(C(=O)O)CC3)cn2)nc1-c1ccc(OC)c(C(F)(F)F)c1 [Compound A, 1-{5-[(5-{[(2R)-2-ethylpyrrolidin-1-yl]methyl}-4-[4-methoxy-3-(trifluoromethyl)phenyl]-1,3-thiazol-2-yl)carbamoyl]pyrazin-2-yl}pyperidine-4-carboxylic acid]
